Experimental data: US4542210A, “1-β-D-Arabinofuranosyl-(E)-5-(2-halogenovinyl)-uracil-5'-phosphate, preparation thereof and use thereof” (Yamasa Shoyu Kabushiki Kaisha, priority 1981, dated 1985)
In brackets after ≈: the same amount, converted by molar mass. Where a name gives a salt, the structure may show the parent alone. Read-outs that look alike come from different tables or passages of the source.

Legend:
[1] = test system: RE strain of HSV (type 1); test: Ulcerative herpetic keratitis in pigmented rabbits, ointment treatment; type: in vivo, RE strain; pigmented rabbits; design: Effect (lesion inhibition): unit not given here; conditions: for Effect (lesion inhibition): control 0; for % score: control 100
Description: (1) Pigmented rabbits, weighing between 2.0 and 3.0 kg, were anesthetised with intravenous pentobarbital sodium (30 mg/kg) and given a retrobulbar injection of 0.5 ml of 1% procaine. For inoculation a suspension of the RE strain of HSV (type 1) was drawn into a fine glass capillary tube (British Journal of Ophthalmology, Vol. 63, No. 6, 425-428 (1979).
After inoculation the eye was left open for 30 seconds and then the lids were closed with cellophane tape. The same procedure was repeated on the other eye. In one group of 3 rabbits the right eyes were treated with 1% BVAUP ointment and the left eyes with 1% BVAU ointment, or vice versa. In another group 3 eyes received no treatment as controls. The treatment was started 48 hours after inoculation and continued every 2 hours during the daytime 5 times a day for 4 days. The eyes were examined 48 hours after inoculation and then every 24 hours with a photo-slit lamp after applying 1% Bengal rose. Each inoculation site was scored according to the extent of the circumference infected.
The total daily score for each eye was calculated and expressed as a percentage of the score (percentage score) immediately before treatment. The therapeutic efficacies of BVAUP and BVAU against ulcerative herpetic keratitis were compared by calculating their average percentage scores.
(2) 0.3% BVAUP ointment and 3% BVAUP ointment were respectively prepared, and were subjected to the similar pharmacological test as shown in (1).

Solubility in water = type: physicochemical
HSV-1-VR-3 = test: Antiviral activity in human embryonic lung fibroblasts (method of Sidwell et al), HSV-1-VR-3; type: cell-based, herpes simplex virus type 1 strain VR3; design: MIC: minimum inhibitory concentration at which HSV induced cytopathogenic effects were depressed more than 50%: unit not given here
Description: (§1) According to the method of Sidwell et al (Applied Microbiology, 22, (5), 797 (1971)), with the use of human embryonic lung fibroblasts, the antiviral activities of BVAUP and CVAUP were tested, with BVAU, CVAU and 5-iodo-2'-deoxyuridine (IDU) as controls.
(§2) effects were depressed more than 50%;
^1 HSV1-VR-3: herpes simplex virus type 1 strain VR3

HSV-2-MS = test: Antiviral activity in human embryonic lung fibroblasts (method of Sidwell et al), HSV-2-MS; type: cell-based, herpes simplex virus type 2 strain MS; design: MIC: minimum inhibitory concentration at which HSV induced cytopathogenic effects were depressed more than 50%: unit not given here
Description: as §1, §2
^2 HSV2-MS: herpes simplex virus type 2 strain MS

[2] = Acute toxicity (LD50) in mice; conditions: mouse, in vivo
type 2 herpes (HSV-2) = test: Antiviral activity against HSV-2 compared with HSV-1 or VZV (general statement)
[3] = 1% ointment, 5 times a day for 4 days
[4] = 1% ointment, 5 times a day for 4 days, control 97.0

| Compound | Effect (lesion inhibition) [1, 3] | Total score per eye [1, 4] | % score [1, 3] [%] | solubility (Solubility in water) [mg/mL] | MIC: minimum inhibitory concentration at which HSV induced cytopathogenic effects were depressed more than 50% (HSV-1-VR-3) | VR: virus rating (HSV-1-VR-3) | MIC: minimum inhibitory concentration at which HSV induced cytopathogenic effects were depressed more than 50% (HSV-2-MS) | VR: virus rating (HSV-2-MS) | Effect (lesion inhibition) ([1]; 0.3% ointment) | Total score per eye ([1]; 0.3% ointment, control 88.7) | % score ([1]; 0.3% ointment) [%] | Effect (lesion inhibition) ([1]; 3% ointment) | % score ([1]; 3% ointment) [%] | Total score per eye ([1]; 3% ointment, control 114.0) | LD50 ([2]; ip, intraperitoneally, read-out: LD50, intraperitoneal) [mg/kg] | LD50 ([2]; iv, intravenously, read-out: LD50, intravenous) [mg/kg] | antiviral activity against HSV-2 (type 2 herpes (HSV-2)) |
| --- | --- | --- | --- | --- | --- | --- | --- | --- | --- | --- | --- | --- | --- | --- | --- | --- | --- |
| O=c1[nH]c(=O)n([C@@H]2O[C@H](CO)[C@@H](O)[C@@H]2O)cc1/C=C/Br [BVAU, 1-β-D-arabinofuranosyl-(E)-5-(2-bromovinyl)uracil, reference compound] | 43.0 | 55.3 | 57.0 | 4 (≈ 11.5 mM) | 0.032 | 3.7 | 32 | 1.1 |  |  |  |  |  |  |  |  |  |
| O=c1[nH]c(=O)n([C@H]2C[C@H](O)[C@@H](CO)O2)cc1I [IDU, 5-iodo-2'-deoxyuridine] |  |  |  |  | 3.2 | 2.4 | 3.2 | 2.2 |  |  |  |  |  |  |  |  |  |
| O=c1[nH]c(=O)n([C@@H]2O[C@H](COP(=O)(O)O)[C@@H](O)[C@@H]2O)cc1/C=C/Br [BVAUP, 1-β-D-arabinofuranosyl-(E)-5-(2-bromovinyl)uracil-5'-phosphate] | 53.9 | 44.7 | 46.1 |  | 0.032 | 3.8 | 32 | 1.1 | 38.3 | 54.7 | 61.7 | 71.9 | 28.1 | 32.0 | 1730 | 1610 | lower than that against the type 1 herpes (HSV-1) or VZV |
| O=c1[nH]c(=O)n([C@@H]2O[C@H](COP(=O)(O)O)[C@@H](O)[C@@H]2O)cc1/C=C/Cl [CVAUP, 1-β-D-arabinofuranosyl-(E)-5-(2-chlorovinyl)uracil-5'-phosphate] |  |  |  |  | 0.032 | 3.7 | 320 | 0.5 |  |  |  |  |  |  |  |  |  |
| O=c1[nH]c(=O)n([C@@H]2O[C@H](CO)[C@@H](O)[C@@H]2O)cc1/C=C/Cl [CVAU, 1-β-D-arabinofuranosyl-(E)-5-(2-chlorovinyl)uracil] |  |  |  |  | 0.032 | 3.7 | 100 | 0.7 |  |  |  |  |  |  |  |  |  |
| O=c1[nH]c(=O)n([C@@H]2O[C@H](COP(=O)(O)O)[C@@H](O)[C@@H]2O)cc1/C=C/Br [disodium salt of 1-β-D-arabinofuranosyl-(E)-5-(2-bromovinyl)uracil-5'-phosphate] |  |  |  | ~500 |  |  |  |  |  |  |  |  |  |  |  |  |  |
